# Activity calls are given as the source filed them. The calls are words filed in the database; no cut-off is given here.
# How the values were obtained:
# Assay type in all cases: cell-based
# [1] = target: T1, von Hippel-Lindau disease tumor suppressor/Protein arginine N-methyltransferase 5 (Homo sapiens, UniProt O14744+P40337); test: PROTAC activity at […]/VHL in human MDA-MB-468 cells assessed as relative protein level at 0.5 uM measured after 24 hrs by Western blot analysis
# [2] = target: T1, von Hippel-Lindau disease tumor suppressor/Protein arginine N-methyltransferase 5; test: PROTAC activity at PRMT5/VHL in human MDA-MB-468 cells assessed as relative protein level at 5 uM measured after 24 hrs by Western blot analysis
# [3] = target: T2, von Hippel-Lindau disease tumor suppressor/Methylosome protein WDR77 (Homo sapiens, UniProt Q9BQA1+P40337); test: PROTAC activity at MEP50/VHL in human MDA-MB-468 cells assessed as relative protein level at 0.5 uM measured after 24 hrs by Western blot analysis
# [4] = target: T2, von Hippel-Lindau disease tumor suppressor/Methylosome protein WDR77; test: PROTAC activity at MEP50/VHL in human MDA-MB-468 cells assessed as relative protein level at 5 uM measured after 24 hrs by Western blot analysis
# T1 sequence (O14744 whole entry, looked up): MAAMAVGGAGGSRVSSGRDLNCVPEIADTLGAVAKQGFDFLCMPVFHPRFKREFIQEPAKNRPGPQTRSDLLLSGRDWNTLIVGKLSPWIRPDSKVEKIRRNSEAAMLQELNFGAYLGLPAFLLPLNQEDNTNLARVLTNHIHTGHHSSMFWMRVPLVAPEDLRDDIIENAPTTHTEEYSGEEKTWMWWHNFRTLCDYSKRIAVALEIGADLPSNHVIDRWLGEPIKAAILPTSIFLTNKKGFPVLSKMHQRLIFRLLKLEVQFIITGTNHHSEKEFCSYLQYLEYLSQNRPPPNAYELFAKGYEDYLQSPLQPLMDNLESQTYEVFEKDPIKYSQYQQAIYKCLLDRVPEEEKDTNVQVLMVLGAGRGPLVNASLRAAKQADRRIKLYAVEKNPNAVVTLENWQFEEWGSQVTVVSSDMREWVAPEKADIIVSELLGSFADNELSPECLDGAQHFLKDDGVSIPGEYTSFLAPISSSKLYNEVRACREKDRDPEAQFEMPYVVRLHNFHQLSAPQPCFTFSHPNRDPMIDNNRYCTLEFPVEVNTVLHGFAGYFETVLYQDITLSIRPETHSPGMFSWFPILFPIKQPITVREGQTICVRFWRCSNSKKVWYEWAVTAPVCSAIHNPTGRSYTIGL
# T1 sequence (P40337 whole entry, looked up): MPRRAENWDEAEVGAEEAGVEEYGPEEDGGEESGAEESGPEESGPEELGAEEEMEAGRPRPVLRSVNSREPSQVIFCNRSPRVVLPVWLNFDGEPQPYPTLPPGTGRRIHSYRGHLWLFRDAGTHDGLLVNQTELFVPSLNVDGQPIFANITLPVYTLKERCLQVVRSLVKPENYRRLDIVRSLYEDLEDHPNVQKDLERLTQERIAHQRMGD
# T2 sequence (P40337 whole entry, looked up): as above
# T2 sequence (Q9BQA1 whole entry, looked up): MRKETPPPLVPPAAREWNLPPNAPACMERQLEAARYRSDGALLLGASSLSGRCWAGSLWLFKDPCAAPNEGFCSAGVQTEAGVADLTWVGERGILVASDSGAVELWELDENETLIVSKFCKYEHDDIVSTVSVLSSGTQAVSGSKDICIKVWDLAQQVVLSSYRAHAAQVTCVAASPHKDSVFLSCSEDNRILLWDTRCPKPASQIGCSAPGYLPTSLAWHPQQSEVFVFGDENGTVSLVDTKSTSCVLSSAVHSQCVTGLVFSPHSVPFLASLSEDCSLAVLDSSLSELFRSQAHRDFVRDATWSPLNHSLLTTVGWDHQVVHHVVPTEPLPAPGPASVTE
Compound,Activity [1],Activity [2],Activity [3],Activity [4]
Cc1ncsc1-c1ccc(CNC(=O)[C@@H]2C[C@@H](O)CN2C(=O)[C@@H](NC(=O)C2(F)CC2)C(C)(C)C)c(OCC(=O)NCCCCC(=O)N2CCC(Nc3cc(C(=O)NC[C@H](O)CN4CCc5ccccc5C4)ncn3)CC2)c1,Active,Active,Active,Active
Cc1ncsc1-c1ccc(CNC(=O)[C@@H]2C[C@@H](O)CN2C(=O)[C@@H](NC(=O)C2(F)CC2)C(C)(C)C)c(OCC(=O)NCCOCCOCCOCCC(=O)N2CCC(Nc3cc(C(=O)NC[C@H](O)CN4CCc5ccccc5C4)ncn3)CC2)c1,Active,Active,Active,Active
Cc1ncsc1-c1ccc([C@H](CC(=O)NCCOCCOCCOCCOCCC(=O)N2CCC(Nc3cc(C(=O)NC[C@H](O)CN4CCc5ccccc5C4)ncn3)CC2)NC(=O)[C@@H]2C[C@@H](O)CN2C(=O)[C@@H](NC(=O)C2(F)CC2)C(C)(C)C)cc1,Active,Active,Active,Active
Cc1ncsc1-c1ccc([C@H](CC(=O)NCCCCCC(=O)N2CCC(Nc3cc(C(=O)NC[C@H](O)CN4CCc5ccccc5C4)ncn3)CC2)NC(=O)[C@@H]2C[C@@H](O)CN2C(=O)[C@@H](NC(=O)C2(F)CC2)C(C)(C)C)cc1,Active,Active,Active,Active
Cc1ncsc1-c1ccc([C@H](CC(=O)NCC(=O)N2CCC(Nc3cc(C(=O)NC[C@H](O)CN4CCc5ccccc5C4)ncn3)CC2)NC(=O)[C@@H]2C[C@@H](O)CN2C(=O)[C@@H](NC(=O)C2(F)CC2)C(C)(C)C)cc1,Active,Active,Active,Active
Cc1ncsc1-c1ccc([C@H](CC(=O)NCCOCCC(=O)N2CCC(Nc3cc(C(=O)NC[C@H](O)CN4CCc5ccccc5C4)ncn3)CC2)NC(=O)[C@@H]2C[C@@H](O)CN2C(=O)[C@@H](NC(=O)C2(F)CC2)C(C)(C)C)cc1,inactive,inactive,inactive,inactive

# Next, values leading:
Activity [1],Activity [2],Activity [3],Activity [4],Compound
Active,Active,Active,Active,Cc1ncsc1-c1ccc([C@H](CC(=O)NCCCCC(=O)N2CCC(Nc3cc(C(=O)NC[C@H](O)CN4CCc5ccccc5C4)ncn3)CC2)NC(=O)[C@@H]2C[C@@H](O)CN2C(=O)[C@@H](NC(=O)C2(F)CC2)C(C)(C)C)cc1
Active,Active,Active,Active,Cc1ncsc1-c1ccc([C@H](CC(=O)NCCCCCCC(=O)N2CCC(Nc3cc(C(=O)NC[C@H](O)CN4CCc5ccccc5C4)ncn3)CC2)NC(=O)[C@@H]2C[C@@H](O)CN2C(=O)[C@@H](NC(=O)C2(F)CC2)C(C)(C)C)cc1
Active,Active,Active,Active,Cc1ncsc1-c1ccc(CNC(=O)[C@@H]2C[C@@H](O)CN2C(=O)[C@@H](NC(=O)C2(F)CC2)C(C)(C)C)c(OCC(=O)NCCCC(=O)N2CCC(Nc3cc(C(=O)NC[C@H](O)CN4CCc5ccccc5C4)ncn3)CC2)c1
inactive,inactive,inactive,Active,Cc1ncsc1-c1ccc([C@H](C)NC(=O)[C@@H]2C[C@@H](O)CN2C(=O)[C@@H](NC(=O)COCCOCCOCCOCCOCC(=O)N2CC(Nc3cc(C(=O)NC[C@H](O)CN4CCc5ccccc5C4)ccn3)C2)C(C)(C)C)cc1
inactive,inactive,inactive,Active,Cc1ncsc1-c1ccc(CNC(=O)[C@@H]2C[C@@H](O)CN2C(=O)[C@@H](NC(=O)C2(F)CC2)C(C)(C)C)c(OCC(=O)NCCOCCOCCOCCOCCOCCC(=O)N2CCC(Nc3cc(C(=O)NC[C@H](O)CN4CCc5ccccc5C4)ncn3)CC2)c1
